Measurements reported in the supplement of paper PMC4862054.

Key:
Settings in all cases: incubation time: 72 h
MFM-223 [1] = test: normalised response (% of control), CellTiter-Glo; higher = more viable cells (100 = DMSO, 0 = benzethonium chloride kill control)
Procedure: (§1)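 DSRT, 72 h incubation, CellTox Green / CellTiter-Glo readout. Signal is normalised to DMSO and benzethonium chloride controls. Value is the normalised response at the highest dose.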

CAL-120 [2] = test: as above
Procedure: as §1

SK-BR-3 = test: as above
Procedure: as §1

CAL-148 [3] = test: as above
Procedure: as §1

HCC1937 [4] = test: as above
Procedure: as §1

DU-4475 [5] = test: as above
Procedure: as §1

BT-474 [6] = test: as above
Procedure: as §1

CAL-51 [7] = test: as above
Procedure: as §1

MDA-MB-231 [8] = test: as above
Procedure: as §1

MDA-MB-453 [9] = test: as above
Procedure: as §1

HDQ-P1 [10] = test: as above
Procedure: as §1

HCC1143 [11] = test: as above
Procedure: as §1

MDA-MB-436 [12] = test: as above
Procedure: as §1

Hs578T [13] = test: as above
Procedure: as §1

BT-549 [14] = test: as above
Procedure: as §1

CAL-85-1 [15] = test: as above
Procedure: as §1

MDA-MB-468 [16] = test: as above
Procedure: as §1

HCC1599 [17] = test: as above
Procedure: as §1

MCF-10A [18] = test: as above
Procedure: as §1

MFM-223 [19] = test: normalised response (% of control), CellTox Green; higher = less cell death (100 = DMSO, 0 = benzethonium chloride kill control)
Procedure, shortened: (§2)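 Every value is a normalised signal taken at one concentration of a dilution series. Compound was placed in 384-well plates at 5 concentrations in 10-fold steps over a compound-specific 10,000-fold range, and 20 µl of breast cancer cell suspension was seeded onto it. After 72 h, CellTox Green fluorescence (485/520 nm) was measured first and CellTiter-Glo luminescence second, following 10 min at room temperature. Each plate was scaled to 0.1 % DMSO (100) and a positive kill control (0).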

CAL-120 [20] = test: as above
Procedure, shortened: as §2

CAL-148 [21] = test: as above
Procedure, shortened: as §2

HCC1937 [22] = test: as above
Procedure, shortened: as §2

DU-4475 [23] = test: as above
Procedure, shortened: as §2

BT-474 [24] = test: as above
Procedure, shortened: as §2

CAL-51 [25] = test: as above
Procedure, shortened: as §2

MDA-MB-231 [26] = test: as above
Procedure, shortened: as §2

MDA-MB-453 [27] = test: as above
Procedure, shortened: as §2

HDQ-P1 [28] = test: as above
Procedure, shortened: as §2

HCC1143 [29] = test: as above
Procedure, shortened: as §2

MDA-MB-436 [30] = test: as above
Procedure, shortened: as §2

Hs578T [31] = test: as above
Procedure, shortened: as §2

BT-549 [32] = test: as above
Procedure, shortened: as §2

CAL-85-1 [33] = test: as above
Procedure, shortened: as §2

MDA-MB-468 [34] = test: as above
Procedure, shortened: as §2

HCC1599 [35] = test: as above
Procedure, shortened: as §2

MCF-10A [36] = test: as above
Procedure, shortened: as §2

SMILES | normalised response (MFM-223 [1]) [%] | normalised response (CAL-120 [2]) [%] | normalised response (SK-BR-3) [%] | normalised response (CAL-148 [3]) [%] | normalised response (HCC1937 [4]) [%] | normalised response (DU-4475 [5]) [%] | normalised response (BT-474 [6]) [%] | normalised response (CAL-51 [7]) [%] | normalised response (MDA-MB-231 [8]) [%] | normalised response (MDA-MB-453 [9]) [%] | normalised response (HDQ-P1 [10]) [%] | normalised response (HCC1143 [11]) [%] | normalised response (MDA-MB-436 [12]) [%] | normalised response (Hs578T [13]) [%] | normalised response (BT-549 [14]) [%] | normalised response (CAL-85-1 [15]) [%] | normalised response (MDA-MB-468 [16]) [%] | normalised response (HCC1599 [17]) [%] | normalised response (MCF-10A [18]) [%] | normalised response (MFM-223 [19]) [%] | normalised response (CAL-120 [20]) [%] | normalised response (CAL-148 [21]) [%] | normalised response (HCC1937 [22]) [%] | normalised response (DU-4475 [23]) [%] | normalised response (BT-474 [24]) [%] | normalised response (CAL-51 [25]) [%] | normalised response (MDA-MB-231 [26]) [%] | normalised response (MDA-MB-453 [27]) [%] | normalised response (HDQ-P1 [28]) [%] | normalised response (HCC1143 [29]) [%] | normalised response (MDA-MB-436 [30]) [%] | normalised response (Hs578T [31]) [%] | normalised response (BT-549 [32]) [%] | normalised response (CAL-85-1 [33]) [%] | normalised response (MDA-MB-468 [34]) [%] | normalised response (HCC1599 [35]) [%] | normalised response (MCF-10A [36]) [%]
COc1cc2c(NC3CCN(C(C)C)CC3)nc(N3CCC(F)(F)CC3)nc2cc1OCCCN1CCCC1 [UNC0642] (10000 nM) | 32.9 | 60.9 | 29.6 | 32.4 | 56.7 | 76.3 | 33.3 | 79 | 18.8 | 5.97 | 48.9 | 70.4 | 19.1 | 91.6 | 56.3 | 5.34 | 3.41 | 94.2 | 40.9 | 81.9 | 19.6 | 44.5 | 29.2 | 95.5 | -7.97 | 113 | -38.7 | 43.1 | 93.1 | 76.4 | 44 | 122 | 104 | -18.1 | -31.3 | 87.4 | 57
CCOC(=O)CCNc1cc(N2CCc3ccccc3CC2)nc(-c2ccccn2)n1 [GSK-J4] (100000 nM) | -0.08 | 0.19 | -0.42 | 0.06 | 0.08 | 0.52 | 0.77 | 0.09 | 0.03 | -0.16 | 1.14 | -0.1 | 0.01 | 0.22 | 0.26 | 0.22 | 0.05 | -0.22 | 0.14 | -2.28 | -21.8 | 3.2 | -33.8 | 79.7 | -13.6 | -10.9 | -38.5 | 2.15 | -15.5 | 24.1 | -10.7 | -146 | -16.3 | -35.9 | -155 | 70.9 | -83.7
CCn1c(-c2nonc2N)nc2cnc(Oc3cccc(NC(=O)c4ccc(OCCN5CCOCC5)cc4)c3)cc21 (10000 nM) | 62.1 | 58.5 | 40.9 | 69.9 | 76.6 | 80 | 66 | 32.8 | 64.4 | 72.2 | 75.9 | 76.4 | 73.3 | 49 | 41.4 | 87.8 | 50.7 | 74.6 | 62.9 | 93.6 | 103 | -66.5 | 78.5 | 97.6 | 98 | 43.7 | 52.4 | 108 | 109 | -33.8 | 74.1 | 110 | 100 | 109 | 74.3 | 97.9 | 93.4
Nc1cc(C(F)(F)F)c(-c2cc(N3CCOCC3)nc(N3CCOCC3)n2)cn1 [Buparlisib] (10000 nM) | 47.8 | 56.3 | 81.5 | 79.9 | 36.2 | 80.2 | 15.8 | 1.1 | 48 | 75.6 | 46.9 | 57.4 | 65.4 | 75 | 3.53 | 83.3 | 11.3 | 94.3 | 36 | 81.7 | 92.1 | 70 | 50.4 | 95.8 | 24 | -15.4 | 29.4 | 97.9 | 85.7 | 68.6 | 75.9 | 18 | 33.8 | 104 | 111 | 93.4 | 79.4
